“Also recorded” adds a separate entry of the source. Where two headings read alike, the source gives them in different places.
Legend:
VSVΔ51-induced genes = assay type: cell-based, mouse
B16 melanoma cells = test: Cell cycle analysis in B16 melanoma cells (propidium iodine, flow cytometry); assay type: cell-based, mouse; conditions: over 48 hours
wild type VSV = assay type: cell-based, Vesicular stomatitis virus
CT26 cells = assay type: cell-based, mouse; conditions: 48 h
VSVΔ51 [1] = assay type: cell-based, Vesicular stomatitis virus; conditions: 40 h
VSVΔ51 [2] = assay type: cell-based, Vesicular stomatitis virus
4T1 cells = assay type: cell-based, mouse; conditions: 48 h
[3] = tested on: IFN mediated antiviral state in U251 cells; assay type: cell-based, human
ISRE-luciferase reporter = assay type: cell-based, human
[4] = tested on: oncolytic vaccinia virus (VVdd); assay type: cell-based; conditions: 20 μM; 72 h
VSVΔ51 [5] = assay type: cell-based, Vesicular stomatitis virus; remark: listed apart in the source
VSVΔ51 [6] = assay type: cell-based, Vesicular stomatitis virus; remark: listed apart in the source
VSVΔ51 [7] = assay type: cell-based, Vesicular stomatitis virus; remark: listed apart in the source
VSVΔ51 [8] = assay type: cell-based, Vesicular stomatitis virus; remark: listed apart in the source
VSVΔ51 [9] = assay type: cell-based, Vesicular stomatitis virus; conditions: 48 hours
[10] = tested on: IFN responsive U251 cells; assay type: cell-based, human
VSVΔ51 [11] = assay type: cell-based, Vesicular stomatitis virus; remark: listed apart in the source
wild type VSV (wtVSV) = assay type: cell-based, Vesicular stomatitis virus
[12] = 4 h pre-treatment, with and without VSVΔ51

Question: Which “VSV-induced cytotoxicity (VSV/CTRL kill ratio)” value (4T1 and CT26 cells; [12]) does the source give for `CCCSc1ccc2nc(NC(=O)OC)[nH]c2c1` [Albendazole] here?
Answer: The value was “enhance VSV-induced cytotoxicity”.

Question: With `COC(=O)Nc1nc2ccc(C(=O)c3cccs3)cc2[nH]1` [Nocodazole] as the compound, how does the “VSV-induced cytotoxicity (VSV/CTRL kill ratio)” value (4T1 and CT26 cells; [12]) read?
Answer: The value was “enhance VSV-induced cytotoxicity”.

Question: With `O=C(CCCCCCC(=O)Nc1ccccc1)NO` [SAHA, reference compound] as the compound, how does the “share of VSVΔ51-induced cellular genes whose induction is reduced” value (VSVΔ51-induced genes) read?
Answer: Its value is 79%.

Question: `CC(/C=C/C(=O)NO)=C\[C@@H](C)C(=O)c1ccc(N(C)C)cc1` [TSA, reference compound] was tested. Which cell cycle distribution (B16 melanoma cells) did it give?
Answer: The cell cycle distribution was “blocks the cell cycle in G1”.

Question: `O=C1OC(c2ccccc2)C(Cl)=C1Cl` (stereo not shown) [VSe1, 3,4-dichloro-5-phenyl-2,5-dihydrofuran-2-one] was tested. Which “growth of VSV with a wild type M gene” value (wild type VSV) did it give?
Answer: Its value is “minimal ability to enhance the growth”.

Question: And the “share of VSVΔ51-induced cellular genes whose induction is reduced” value (VSVΔ51-induced genes)?
Answer: The value was “over 96%”.

Question: What about the “cell killing in combination with VSVΔ51 (combination index)” value (CT26 cells) of the same compound?
Answer: The value was “synergistic cell killing”.

Question: And the “interferon protection from VSVΔ51 infection” value (VSVΔ51 [1])?
Answer: The value was “partially overcome”.

Question: What about the “differential in replication between normal and cancerous tissues” value (VSVΔ51 [2]) of the same compound?
Answer: Its value is “roughly 1000 fold”.

Question: And the “growth of VSVΔ51 in tumour tissue” value (VSVΔ51 [2])?
Answer: The value was “over 100 fold”.

Question: And the “VSVΔ51-GFP growth and spread (green fluorescence)” value (VSVΔ51 [2]; 40 μM)?
Answer: Its value is “significantly enhanced”.

Question: And the “cell killing in combination with VSVΔ51 (combination index)” value (4T1 cells)?
Answer: The value was “synergistic cell killing”.

Question: And the “sensitivity of IFN-protected cells to VSVΔ51” value [3]?
Answer: The value was “partially re-sensitized to VSVΔ51; also recorded: can overcome pre-existing IFN mediated antiviral state”.

Question: What about the “interferon dependent transcription (luciferase)” value (ISRE-luciferase reporter) of the same compound?
Answer: Its value is “blunted”.

Question: And the “VVdd spread and viral output” value [4]?
Answer: The value was “able to enhance the spread and replication; also recorded: enhanced spread and viral output; also recorded: enhances spread”.

Question: And the “increase in viral titer” value (VSVΔ51 [5])?
Answer: Its value is 1000 fold.

Question: What about the “replication of VSVΔ51 in normal tissues” value (VSVΔ51 [6]) of the same compound?
Answer: The value was “did not increase the replication”.

Question: What about the cell cycle distribution (B16 melanoma cells; listed as DCPDF) of the same compound?
Answer: The cell cycle distribution was “cells ultimately accumulate in G1; also recorded: block in G1”.

Question: How did the “VSV-induced cytotoxicity (VSV/CTRL kill ratio)” value (4T1 and CT26 cells; [12]) turn out when `CCC1=C[C@@H]2CN(C1)Cc1c([nH]c3ccccc13)[C@@](C(=O)OC)(c1cc3c(cc1OC)N(C)[C@H]1[C@@](O)(C(=O)OC)[C@H](OC(C)=O)[C@]4(CC)C=CCN5CC[C@]31[C@@H]54)C2` [Vinorelbine base, Vinorelbine Base] was run?
Answer: Its value is “enhance VSV-induced cytotoxicity”.

Question: How did the “enhancement of VSVΔ51 spread” value (VSVΔ51 [7]) turn out when `COc1cc2c(c(OC)c1OC)-c1ccc(OC)c(=O)cc1[C@@H](NC(C)=O)CC2` [colchicine] was run?
Answer: The value was “not observed in normal MRC-5 cells”.

Question: What about the “VSV-induced cytotoxicity (VSV/CTRL kill ratio)” value (4T1 and CT26 cells) of the same compound?
Answer: Its value is “enhance VSV-induced cytotoxicity”.

Question: And the VSVΔ51 spread (VSVΔ51 [8])?
Answer: The VSVΔ51 spread was “enhanced spread of VSVΔ51”.

Question: And the “lowest dose with strong enhancement of VSVΔ51 (GFP) spread” value (VSVΔ51 [9])?
Answer: Its value is 80 nM.

Question: And the VSV oncolysis [10]?
Answer: Its VSV oncolysis is “enhanced VSV oncolysis”.

Question: What about the “ability to overcome IFN-induced antiviral effects” value [10] of the same compound?
Answer: Its value is “could not overcome IFN-induced antiviral effects”.

Question: What about the “enhancement of virus production (maximum)” value (VSVΔ51 [11]) of the same compound?
Answer: Its value is roughly 1000 fold.

Question: And the “number of GFP positive cells with wtVSV” value (wild type VSV (wtVSV))?
Answer: The value was “appeared to decrease the number of GFP positive cells”.

Question: With Parbendazole as the compound, how does the “VSV-induced cytotoxicity (VSV/CTRL kill ratio)” value (4T1 and CT26 cells; [12]) read?
Answer: The value was “enhance VSV-induced cytotoxicity”.
